Source: article PMC8344021, “Discovery of Small Molecule Bak Activator for Lung Cancer Therapy” (Theranostics, 2021)

What was measured:
[1] = Toxicity in mice bearing A549 xenografts; type: in vivo, Nu/Nu nude mice; details: 28 days
Protocol: To assess whether BKA-073 induced suppression of tumor growth occurs through activation of Bak and apoptosis in vivo, representative samples from harvested tumor tissues were analyzed by cross-linking with BMH for Bak oligomerization or by immunohistochemistry (IHC) for active caspase 3 as described, [29], [47]. […] There were no decreases in white cells (WBC), red blood cells (RBC) and platelets (PLT) in blood.
Figure 5 Toxicity of BKA-073 in vivo. (A-C) Body weight (A), blood analysis (B) and H&E histology of various organs (C) from mice bearing A549 xenografts after treatment with increasing doses (0, 5, 10, 15mg/kg/d) of BKA-073 for 28 days. […]
Whole blood (250µL) was collected in EDTA-coated tubes via cardiac puncture of anesthetized
mice for hematology studies. […]

DMS114 xenografts = assay: SCLC DMS114 xenografts, tumor growth; type: in vivo, Nu/Nu nude mice; details: 15mg/kg/d i.p., 2-4 weeks
Protocol: Six-week-old female Nu/Nu nude mice were purchased from Envigo (Indianapolis, IN) and housed under pathogen-free conditions in microisolator cages. The animal propagation protocol was approved by the Emory Institutional Animal Care and Use Committee (IACUC) and the Emory Animal Ethics Committee. 3×10^6 lung cancer cells were injected into subcutaneous tissue in the flank region of nude mice. The tumors were allowed to grow to an average volume of 150~200 mm^3 prior to initiation of therapy as previously described, [29]. Patient-derived xenografts (PDXs, TKO-002 and TKO-005) were established as part of an IRB-approved phase II co-clinical trial of arsenic trioxide in patients with relapsed SCLC who had failed standard platinum-based chemotherapy. Tumor samples were obtained by image-guided biopsy and were directly implanted into Nu/Nu nude mice without intervening propagation in plastic culture plates. Direct serial propagation of growing tumor occurred for up to 5 generations. The animal propagation protocol was approved by the Emory IACUC and the Emory Animal Ethics Committee. Mice with SCLC and NSCLC xenografts or PDXs were treated with BKA-073 intraperitoneally (i.p.) or venetoclax orally as indicated. During treatment, tumor volume (V) was measured by caliper measurements once every two days as described previously. Mice were euthanized by CO2 inhalation at the end of treatment. […]

[2] = system: NSCLC and SCLC cell lines; assay: Dynamic BH3 profiling in panel of NSCLC and SCLC cell lines; type: cell-based, human; details: 1μM, 16h
Protocol: DBP using Bim peptide was carried out as described previously [24]-[26]. After treatment with BKA-073, venetoclax (ABT-199) or DMSO control for 16h, cells were collected, washed and resuspended at 2 x 10^6 cells/ mL in mannitol experimental buffer (MEB) [150 mM D-mannitol, 10 mM HEPES-KOH (pH 7.5), 50 mM KCl, 20 μM EGTA, 20 μM EDTA, 0.1% BSA, and 5 mM succinate] as described. One volume of the 4x cell suspension was added to one volume of a 4x dye solution containing 4 μM JC-1, […] oligomycin, 0.02% digitonin, 20mM β-mercaptoethanol in MEB. The 2x cell/dye mixture was allowed to rest for 5-10 min at room temperature to allow for permeabilization and JC-1 staining. A total of 15μl of the 2x cell/dye mixture was loaded into a 384-well plate that contained 15µL of Bim BH3 peptide (0.03, 0.1, 0.3, 1, and 3 μM) in MEB, shaken for 15 s inside the reader, and the fluorescence at 590 nm monitored every 5 min for 180 min at 32 °C. The dynamic BH3 profile (∆ % Priming) was calculated as described [24]-[26].
Figure 1 Discovery of small molecule BKA-073 as a lead compound that targets BH3 domain of Bak and induces mitochondrial priming and apoptosis in lung cancer cells. (A) Schematic illustration of screening strategies used to identify the lead Bak agonist BKA-073 and its chemical structure. […] (C) Expression levels of Bak were analyzed by Western blot in NSCLC and SCLC cell lines. […]

COc1ccc2nc3ccccc3c(NCCNCC(C)O)c2c1 (stereo not shown) [BKA-073]
body weight ([1]; 5, 10, 15mg/kg/d i.p.): No weight loss | kidney (BUN) and liver (ALT and AST) function ([1]; 5, 10, 15mg/kg/d i.p.): in the normal range | white cells (WBC), red blood cells (RBC) and platelets (PLT) in blood ([1]; 5, 10, 15mg/kg/d i.p.): no decreases | tolerability ([1]; 5-15mg/kg/d i.p.): well tolerated without significant toxicity | histopathology of normal tissues (heart, liver, lung, brain, spleen, kidney, intestine) ([1]; 5~15mg/kg/d i.p.): no evidence of normal tissue toxicities | tumor growth (DMS114 xenografts): potently suppressed tumor growth | induction of mitochondrial priming [2]: potently induced
